Data taken from US8206955B2, “Production of monatin and monatin precursors” (Cargill, Incorporated, priority 2003, dated 2012).

Tests used:
E. coli BL21(DE3) = assay: effect of Tweens on growth of E. coli in shake flasks; details: for effect on growth rate: 0.2% Tween in the presence of 10 μg/mL ampicillin, followed over 48 h
Procedure: The affect of several detergent Tweens on the growth rate of E. coli BL21(DE3) was studied in shake flask experiments. Either Tween-20, -40, 60, or -80 was added at 0.2% in the presence of 10 μg/mL ampicillin and the growth was followed over 48 h.

stability of MP = assay type: physicochemical
Source text: Any effect of additional tryptophan and pyruvate was not detectable, except in the case of Comamonas, where a benefit was noted. […] It is not known whether tryptophan and pyruvate are efficiently taken up in these wildtype organisms, or what changes in gene expression occur as a result of adding large concentrations of these substrates to the medium. While the parahydroxybenzoate substrate is only known to induce the aldolase in Comamonas, it appears to have improved the level of monatin produced in S. meliloti as well.

[1] = aldolase activity assay, indole-3-pyruvate and pyruvate to MP; assay type: biochemical
Procedure: The proteins were assayed for activity using indole-3-pyruvate and sodium pyruvate as substrates. The assay mixture contained 100 mM Tris-HCl (pH 7-pH 8.9), 0-8 mM MgCl2, 3 mM potassium phosphate (pH 8), and 6 mM of each substrate in 1 mL. The reaction was started by adding varying amounts of polypeptide (for example from 10 to 100 μg), and was incubated at 25° C.-37° C. for 30 minutes, filtered, and then frozen at −80° C.
There is no evidence that magnesium and phosphate are required for activity for this enzyme. However, the literature reports performing the assays in sodium phosphate buffer, and the enzyme reportedly is bifunctional and has activity on phosphorylated substrates such as 2-keto-3-deoxy-6-phosphogluconate (KDPG). The enzymatic assays were performed as described above, and in some instances the phosphate was omitted. […] In some cases the level of MP produced by KHG was almost identical to the amount produced by magnesium and phosphate alone. […] The Bacillus enzyme had the highest activity, approximately 20-25% higher activity than the magnesium and phosphate alone, as determined by LC/MS/MS (see Example 6). […] All three enzymes have the active site glutamate (position 43 in B. subtilis numbering system) as well as the lysine required for Shiff base formation with pyruvate (position 130); however, the B. subtilis enzyme contains a threonine in position 47, an active site residue, rather than arginine. The B. subtilis KHG is smaller and appears to be in a cluster distinct from the S. meliloti and E. coli enzymes, with other enzymes having the active site threonine. The differences in the active site may be the reason for the increased activity of the B. subtilis enzyme.

C. testosteroni = assay: plate assay using monatin as the main carbon and energy source; assay type: cell-based
Procedure: (§1) Organisms that can synthesize monatin can be detected by screening for growth on plates in which monatin (or the monatin precursor (MP)) is the main carbon and energy source. Screening by this method requires (1) that the synthetic pathway be reversible, allowing the product, monatin, to be metabolized by this route and (2) that the organism has a transport system that is able to import monatin or MP. S. meliloti, P. straminea, and C. testosteroni were tested for their ability to grow on minimal medium plates which contained monatin as the primary carbon and energy source.
(§2) Plates containing M9 minimal medium or Rhizobium minimal medium were prepared with 0.01% casamino acids and 0.1-0.2% carbon source (glucose or purified monatin). Negative control plates contained casamino acids but no additional carbon source. S. meliloti, P. straminea, and C. testosteroni were grown in rich media to OD 2.1-2.7 and diluted 1000-fold with sterile 1× phosphate-buffered saline (PBS). A volume of 1-10 μL was used for plating. The plates were incubated at 26° C. for several days. […] The experiments were repeated and C. testosteroni was grown in both NB as well as PHB media prior to induction. Again using M9 media for plating, the S. meliloti appeared to grow better with monatin as the carbon source than the other organisms. […] In addition, at the higher dilution (10^−6), the use of PHB-grown inoculum increased the number and size of colonies obtained compared to the NB-grown inoculum.

S. meliloti = assay: as above; assay type: cell-based; details: M9 medium + monatin (0.1-0.2%), 26° C.
Procedure: as §1, §2

[2] = tested on: C. testosteroni ProA aldolase and L-aspartate aminotransferase (AspC); assay: production of monatin utilizing alternative C3-carbon sources; assay type: biochemical
Procedure: The reaction mixture consisted of 50 mM Tris-Cl pH 8.3, 2 mM MgCl2, 200 mM C3 carbon source, 5 mM alpha-ketoglutarate, sodium salt, 0.05 mM pyridoxal phosphate, deaerated water to achieve a final volume of 0.5 mL after the addition of the enzymes, 3 mM potassium phosphate pH 7.5, 25 μg of crude recombinant C. testosteroni ProA aldolase as prepared in Example 2, 500 μg of crude L-aspartate aminotransferase (AspC) as prepared in Example 1, and solid tryptophan to afford a concentration of >60 mM (saturated; some undissolved throughout the reaction). The reaction mix was incubated at 30° C. for 30 minutes with mixing. Serine, alanine, and aspartate were supplied as 3-carbon sources. Assays were performed with and without secondary PLP enzymes (purified) capable of performing beta-elimination and beta-lyase reactions (tryptophanase (TNA), double mutant tryptophanase, β-tyrosinase (TPL)).

[3] = 200 mM C3 carbon source, additional PLP enzyme: None
[4] = additional PLP enzyme: 11 μg wildtype TNA (1 U)
[5] = additional PLP enzyme: 80 μg double mutant TNA

Molecule: Tween-80
- effect on growth rate (E. coli BL21(DE3)): intermediate in affect

Molecule: O=C(O)C(=O)CC(O)(Cc1c[nH]c2ccccc12)C(=O)O (centres unmarked) [MP, 2-hydroxy 2-(indole-3-ylmethyl)-4-keto glutaric acid]
- stability (stability of MP; aqueous solution): unstable in an aqueous solution
- stability (stability of MP; fermentation broth and cell extracts): not stable in this particular matrix

Molecule: Cc1ncc(COP(=O)(O)O)c(C=O)c1O [PLP, pyridoxal 5′-phosphate, reference compound]
- formation of MP from indole-3-pyruvate and pyruvate (in words) [1]: did not appear to detectably convert indole-3-pyruvate to MP

Molecule: Tween-60
- effect on growth rate (E. coli BL21(DE3)): intermediate in affect

Molecule: NC(CC(O)(Cc1c[nH]c2ccccc12)C(=O)O)C(=O)O (racemic) [monatin, 2-hydroxy-2-(indol-3-ylmethyl)-4-aminoglutaric acid]
- growth with monatin as carbon source (C. testosteroni; M9 media + monatin): exhibited some growth
- growth with monatin as carbon source (C. testosteroni; Rhizobium minimal medium): grew better with monatin as the carbon and energy source than it did with glucose
- growth with monatin as carbon source (S. meliloti): exhibited better growth than the other strains tested

Molecule: N[C@@H](CO)C(=O)O [serine]
- Relative Activity [2, 3]: 3%
- Relative Activity [2, 4]: 5.1%
- Relative Activity [2, 5]: 4.6%

Molecule: Tween 40
- inhibition to growth (E. coli BL21(DE3); 0.2% Tween): least inhibition to growth
- effect on growth rate (E. coli BL21(DE3)): affected the growth rate the least

Molecule: tryptophanase
- formation of MP from indole-3-pyruvate and pyruvate (in words) [1]: did not appear to detectably convert indole-3-pyruvate to MP

Molecule: polyoxyethylene 20-Sorbitan monolaurate [Tween 20]
- final OD600 relative to cultures grown in the presence of Tween 40 (E. coli BL21(DE3); 0.2% Tween): slightly over half
- effect on growth rate (E. coli BL21(DE3)): about half

Molecule: C[C@H](N)C(=O)O [alanine]
- Relative Activity [2, 3]: 32%
- Relative Activity [2, 4]: 41.7%
- Relative Activity [2, 5]: 43.9%

Molecule: C. testosteroni aldolase: 4-hydroxy-4-methyl-2-oxoglutarate pyruvate lyase (ProA aldolase) from Comamonas testosteroni (SEQ ID NO: 66)
- amount of MP produced ([1]; standard assay using 20 μg of purified protein, based on tryptophan standards): 10-40 μg per one mL reaction
